Values after ≈ are worked out from the molar mass of the structure shown. Where a name gives a salt, the structure may show the parent alone. Read-outs that look alike come from different tables or passages of the source.
How the values were obtained:
Assay in all cases: In vitro antibacterial activity on pathogenic bacteria for fish (agar MIC, Test Example 1)
Format in all cases: cell-based
Pasteurella piscicida = conditions: Photobacterium damselae, 20 h
Experimental: (§1) In vitro antibacterial activity on pathogenic-bacteria for fish
(§2) Each of the test strains was cultured over-night, and each culture broth (containing about 10^6 cells/ml) was innoculated in Mueller-Hinton agar (DIFCO) supplied with 1.0-2.0% sodium chloride and containing the test compound at each specified concentration.

Vibrio anguillarum = conditions: Vibrio anguillarum, 20 h, 25-30 °C, read-out: MIC (minimum growth-inhibition concentration)
Experimental: as §1, §2

Aeromonas hydrophila = conditions: Aeromonas hydrophila, 20 h
Experimental: as §1, §2

[1] = Pasteurella piscicida strain EH8304, Mueller-Hinton agar, 25-30 °C, read-out: MIC (minimum growth-inhibition concentration)
[2] = Pasteurella piscicida strain EH8309, Mueller-Hinton agar, 25-30 °C, read-out: MIC (minimum growth-inhibition concentration)
[3] = Pasteurella piscicida strain EH8312, Mueller-Hinton agar, 25-30 °C, read-out: MIC (minimum growth-inhibition concentration)
[4] = Pasteurella piscicida strain EH8313, Mueller-Hinton agar, 25-30 °C, read-out: MIC (minimum growth-inhibition concentration)
[5] = Pasteurella piscicida strain NG8319, Mueller-Hinton agar, 25-30 °C, read-out: MIC (minimum growth-inhibition concentration)
[6] = Vibrio anguillarum strain NA8340, Mueller-Hinton agar
[7] = Vibrio anguillarum strain NA8341, Mueller-Hinton agar
[8] = Vibrio anguillarum strain NA8346, Mueller-Hinton agar
[9] = Vibrio anguillarum strain NA8347, Mueller-Hinton agar
[10] = Vibrio anguillarum strain NH8410, Mueller-Hinton agar
[11] = Aeromonas hydrophila strain C 44, Mueller-Hinton agar, 25-30 °C, read-out: MIC (minimum growth-inhibition concentration)
[12] = Aeromonas hydrophila strain KA8301, Mueller-Hinton agar, 25-30 °C, read-out: MIC (minimum growth-inhibition concentration)
[13] = Aeromonas hydrophila strain KA8414, Mueller-Hinton agar, 25-30 °C, read-out: MIC (minimum growth-inhibition concentration)
[14] = Aeromonas hydrophila strain KA8416, Mueller-Hinton agar, 25-30 °C, read-out: MIC (minimum growth-inhibition concentration)
[15] = Aeromonas hydrophila strain M 183, Mueller-Hinton agar, 25-30 °C, read-out: MIC (minimum growth-inhibition concentration)

Structure (SMILES) | MIC (Pasteurella piscicida; [1]) | MIC (Pasteurella piscicida; [2]) | MIC (Pasteurella piscicida; [3]) | MIC (Pasteurella piscicida; [4]) | MIC (Pasteurella piscicida; [5]) | MIC (Vibrio anguillarum; [6]) | MIC (Vibrio anguillarum; [7]) | MIC (Vibrio anguillarum; [8]) | MIC (Vibrio anguillarum; [9]) | MIC (Vibrio anguillarum; [10]) | MIC (Aeromonas hydrophila; [11]) | MIC (Aeromonas hydrophila; [12]) | MIC (Aeromonas hydrophila; [13]) | MIC (Aeromonas hydrophila; [14]) | MIC (Aeromonas hydrophila; [15]) | also measured
CN1CCN(c2cc3c(cc2F)c(=O)c(C(=O)O)cn3C2CC2)CC1 [Compound C, hydrochloride of 1-cyclopropyl-6-fluoro-1,4-dihydro-4-oxo-7-(4-methylpiperazino)quinoline-3-carboxylic acid] | 0.05 µg/mL | 0.05 µg/mL | 0.05 µg/mL | 0.05 µg/mL | 0.05 µg/mL | < 0.025 µg/mL | < 0.025 µg/mL | < 0.025 µg/mL | < 0.025 µg/mL | < 0.025 µg/mL | < 0.025 µg/mL | < 0.025 µg/mL | < 0.025 µg/mL | < 0.025 µg/mL | < 0.025 µg/mL | 
CCOC(=O)c1cn(C2CC2)c2cc(N3CCN(CC)CC3)c(F)cc2c1=O [Compound H, ethyl 1-cyclopropyl-6-fluoro-1,4-dihydro-4-oxo-7-(4-ethylpiperazino)-quinoline-3-carboxylate] | 25 µg/mL (≈ 64.5 µM) | 25 µg/mL (≈ 64.5 µM) | 12.5 µg/mL (≈ 32.3 µM) | 12.5 µg/mL (≈ 32.3 µM) | 25 µg/mL (≈ 64.5 µM) | 25 µg/mL (≈ 64.5 µM) | 25 µg/mL (≈ 64.5 µM) | 12.5 µg/mL (≈ 32.3 µM) | 12.5 µg/mL (≈ 32.3 µM) | 12.5 µg/mL (≈ 32.3 µM) | 50 µg/mL (≈ 129 µM) | 12.5 µg/mL (≈ 32.3 µM) | 25 µg/mL (≈ 64.5 µM) | 12.5 µg/mL (≈ 32.3 µM) | 12.5 µg/mL (≈ 32.3 µM) | 
O=C(O)c1cn(C2CC2)c2cc(N3CCNCC3)c(F)cc2c1=O [Compound A, hydrochloride of 1-cyclopropyl-6-fluoro-1,4-dihydro-4-oxo-7-piperazino-quinoline-3-carboxylic acid] |  |  |  |  |  | < 0.025 µg/mL | < 0.025 µg/mL | < 0.025 µg/mL | < 0.025 µg/mL | < 0.025 µg/mL |  |  |  |  |  | MIC (Pasteurella piscicida; read-out: MIC (minimum growth-inhibition concentration), Pasteurella piscicida strain EH8304, Mueller-Hinton agar, 25-30 °C): 0.05 µg/mL; MIC (Pasteurella piscicida; read-out: MIC (minimum growth-inhibition concentration), Pasteurella piscicida strain EH8309, Mueller-Hinton agar, 25-30 °C): < 0.025 µg/mL; MIC (Pasteurella piscicida; read-out: MIC (minimum growth-inhibition concentration), Pasteurella piscicida strain EH8312, Mueller-Hinton agar, 25-30 °C): 0.05 µg/mL; MIC (Pasteurella piscicida; read-out: MIC (minimum growth-inhibition concentration), Pasteurella piscicida strain NG8319, Mueller-Hinton agar, 25-30 °C): < 0.025 µg/mL; MIC (Aeromonas hydrophila; read-out: MIC (minimum growth-inhibition concentration), Aeromonas hydrophila strain C 44, Mueller-Hinton agar, 25-30 °C): < 0.025 µg/mL; MIC (Aeromonas hydrophila; read-out: MIC (minimum growth-inhibition concentration), Aeromonas hydrophila strain KA8301, Mueller-Hinton agar, 25-30 °C): < 0.025 µg/mL; MIC (Aeromonas hydrophila; read-out: MIC (minimum growth-inhibition concentration), Aeromonas hydrophila strain KA8414, Mueller-Hinton agar, 25-30 °C): < 0.025 µg/mL; MIC (Aeromonas hydrophila; read-out: MIC (minimum growth-inhibition concentration), Aeromonas hydrophila strain KA8416, Mueller-Hinton agar, 25-30 °C): < 0.025 µg/mL; MIC (Aeromonas hydrophila; read-out: MIC (minimum growth-inhibition concentration), Aeromonas hydrophila strain M 183, Mueller-Hinton agar, 25-30 °C): < 0.025 µg/mL
O=C(O)c1cn(C2CC2)c2cc(N3CCN(CCO)CC3)c(F)cc2c1=O [Compound F, hydrochloride of 1-cyclopropyl-6-fluoro-1,4-dihydro-4-oxo-7-(4-β-hydroxyethyl-piperazino)-quinoline-3-carboxylic acid] | 0.1 µg/mL | 0.1 µg/mL | 0.1 µg/mL | 0.1 µg/mL | 0.1 µg/mL | 0.1 µg/mL | 0.1 µg/mL | 0.1 µg/mL | 0.05 µg/mL | 0.1 µg/mL | < 0.025 µg/mL | 0.05 µg/mL | < 0.025 µg/mL | < 0.025 µg/mL | < 0.025 µg/mL | 

Reference: patent publication US5281596A, “Antibacterial drugs for fish” (Bayer Aktiengesellschaft, priority 1986, dated 1994)
